The record followed here is patent US20160120858A1 (ACADEMIA SINICA, priority 2014, published 2016).

Test [1] concerns NMDAR. The test is described as follows: Simultaneous NMDA- and AMPA-eEPSCs at −40 mV, patch-clamp, hippocampal slices. It counts as cell-based, mouse. As to conditions: for NMDA-eEPSCs (NMDAR function) at −40 mV: CQ 4 uM, 20 minutes, WT and Shank2^−/− SC-CA1 synapses. As for the experimental part:
(§1) For electrophysiological experiments, sagittal hippocampal slices (400 uM thick for extracellular, 300 uM thick for intracellular recordings) of Shank2^−/− mice (or ZnT3^−/− mice) and their wild-type littermates were prepared using a vibratome (Leica VT1200) in ice-cold dissection buffer containing (in mM) 212 sucrose, 25 NaHCO3, 5 KCl, 1.25 NaH2PO4, 0.5 CaCl2, 3.5 MgSO4, 10 D-glucose, 1.25 L-ascorbic acid, and 2 Na-pyruvate bubbled with 95% 02/5% CO2. CA3 was removed to prevent epileptiform activity. Slices were restored for 1 hour in 32° C. in a normal artificial CSF (ACSF) (In units of mM: 124 NaCl, 2.5 kCl, 1 NaH2PO4, 25 NaHCO3, 10 glucose, 2 CaC12, 2 Mg504 oxidized by 95% 02/5% CO2) For the recording, a single slice was moved to and maintained in submerged-type chamber at 28° C., continuously perfused with ACSF (2 mL/minute) saturated with 95% 02/5% CO2. Stimulation and recording pipettes were pulled from borosilicate glass capillaries (Harvard Apparatus) using a micropipette electrode puller (Narishege).
Whole-cell patch-clamp recordings of hippocampal CA1 pyramidal neurons were also made using a MultiClamp 700B amplifier (Molecular Devices) and Digidata 1440A (Molecular Devices). During whole-cell patch-clamp recordings, series resistance was monitored each sweep by measuring the peak amplitude of the capacitance currents in response to short hyperpolarizing step pulse (5 mV, 40 ms); only cells with a change in <25% were included in the analysis. For NMDA (N-Methyl-D-aspartate)/AMPA (alpha-amino-3-hydroxy-5-methylisoxazole-4-propionic acid) ratio experiments, mouse hippocampal slices at the age of postnatal day 17 to 25 were used. The recording pipettes (2.5 to 3.5 MΩ) were filled with an internal solution containing the following (in mM): 100 CsMeSO4, 10 TEA-Cl, 8 NaCl, 10 HEPES, 5 QX-314-C1, 2 Mg-ATP, 0.3 Na-GTP, 10 EGTA, with pH 7.25, 295 mOsm). CA1 pyramidal neurons were voltage-clamped at −70 mV, and EPSPs were evoked at every 15 sec. AMPAR-mediatedEPSCs were recorded at −70 mV, and 30 consecutive responses were recorded after stable baseline. After recording AMPAR-mediated EPSPs, holding potential was changed to +40 mV to record NMDA receptor-mediated EPSPs. NMDA component was measured at 60 ms after the stimulation. The NMDA/AMPA ratio was determined by dividing the mean value of 30 NMDA components of EPSPs by the mean value of 30 AMPAR-mediated EPSC peak amplitudes. […] For measuring AMPAR-mediated and NMDAR-mediated EPSCs together upon CQ treatment, pyramidal neurons were voltage-clamped at −40 mV, and EPSCs were evoked at every 15 sec. AMPAR-mediated EPSC was determined as a peak amplitude of EPSC, and NMDAR-mediated EPSC as a component at 60 ms after stimulation. NMDA/AMPA ratio at −40 mV was calculated by using both values, and monitored during the experimental process. […] Picrotoxin (100 uM) was always added to ACSF to block GABAA receptor-mediated currents.
In general terms: The patch-clamp technique gives a direct electrical read-out from membranes.

In test [2] the test system is Shank2^−/− mice. Briefly: Open field test. Type of test: in vivo, mouse. To be noted: 30 mg/kg i.p.; for Locomotor activity (hyperactivity, excessive action) / Time spent in the center region (anxiety-like behavior): 30 mg/kg. On the procedure: The injection was performed 2 hours before (Shank2^−/− mice and wild-type littermates), or 3 hours before (Tbr1^+/− mice and wild-type littermates) behavioral assays at the discretion of the facility. A within-subjects design was designed with a one week washout period (FIG. 8), and divided animals into two groups, vehicle-first and clioquinol-first group, to rule out carryover effects. Each mouse received a single acute dose of vehicle or clioquinol, and underwent a single behavioral task, one task per week. Testing was conducted in dedicated behavioral test rooms during the light phase (three-chamber test) and the dark phase (repetitive behaviors and open field test). The size of the open field box was 40×40×40 cm, and the center zone line was 13.3 cm apart from the edge. Mice were placed in the center in the beginning of the test, and mouse movements were recorded with a video camera for 60 minutes, and analyzed by Ethovision 10.0 (Noldus).

Test [3] deals with hippocampal SC-CA1 synapses. Briefly: Tetanus-induced LTP (fEPSP), hippocampal slices. It counts as cell-based, mouse. As to conditions: 4 uM. On the procedure:
as §1, with “Shank2^-/-” for “Shank2^−/−”, “ZnT3^-/-” for “ZnT3^−/−”, “([…]). For extracellular recordings, mouse hippocampal slices at the age of postnatal day 21 to 35 were used. Field excitatory postsynaptic potentials (fEPSPs) were recorded in the stratum radiatum of the hippocampal CA1 region using pipettes filled with ACSF (1 MΩ). fEPSP was amplified (Multiclamp 700B, Molecular Devices), and digitized (Digidata 1440A, Molecular Devices) for measurements. The Schaffer collateral pathway was stimulated every 20 seconds with pipettes filled with ACSF (0.3 to 0.5 MΩ). The stimulation intensity was adjusted to yield a half-maximal response, and three successive responses were averaged and expressed relative to the normalized baseline. To induce LTP, high frequency stimulation (100 Hz, 1 s) was applied after a stable baseline was acquired.” for “(Narishege).”

As to `Oc1c(I)cc(Cl)c2cccnc12` [clioquinol, 5-Chloro-7-Iodo-8-Hydroxyquinoline], the “NMDA-eEPSCs (NMDAR function) at −40 mV” value in test [1] is “increased NMDA-eEPSCs”; in test [1] (listed as CQ), “enhances NMDAR function”. For the same compound, in test [1] (clioquinol treatment, WT and Shank2^−/−), the “AMPA-eEPSCs at −40 mV” value is on record as “not affected”. Also, the “NMDAR function (NMDA-eEPSCs at −40 mV) in the presence of sSrc (40-58)” value in test [1] (peptide 0.03 mg/mL in internal solution) is on record as “effectively enhances NMDAR function”. The “NMDAR function (NMDA-eEPSCs at −40 mV) in the presence of Src (40-58)” value in test [1] (peptide 0.03 mg/mL in internal solution, Shank2^−/− SC-CA1 synapses) is reported as “fails to enhance NMDAR function”. Moreover, the “Locomotor activity (hyperactivity, excessive action)” value in test [2] (Shank2^−/− mice) was “did not weaken”; in test [2] (Shank2^−/− mice, listed as Clioquinol) it was “did not improve excessive action”. Moreover, the “Time spent in the center region (anxiety-like behavior)” value is on record as “had no effect on the center-region time” in test [2] (Shank2^−/− mice); “has no effect on the time spent in the center region” in test [2] (Shank2^−/− mice, listed as CQ); “has no effect on the time spent in the center region” in test [2] (wild-type mice, listed as CQ); “had no effect” in test [2] (wild-type mice, listed as Clioquinol). Further, in test [2] (wild-type mice), the Locomotor behavior result is “had no effect”. Moreover, the “Tetanus (100 Hz)-induced LTP” value is given as “reversed the reduced tetanus-induced long-term potentiation” in test [3] (Shank2^−/− SC-CA1 synapses); “restored LTP” in test [3] (Shank2^−/− SC-CA1 synapses, listed as CQ); “had no effect on LTP” in test [3] (wild-type synapses).
